In test [1] the target is 72 kDa type IV collagenase (Homo sapiens, UniProt P08253). The test is described as follows: Dose Response validation of uHTS RPN11 inhibitor hits using a MMP-2 Fluorescence assay. The test is classed as functional.
The target in test [2] is 26S proteasome non-ATPase regulatory subunit 14 (Homo sapiens, UniProt O00487). The test is described as follows: inhibition of proteasome subunit RPN11 – biochemical, fluorescence polarization, uHTS hits, confirmation (AID 602368). Format: functional. On the technique in general: Polarisation of emitted light reports the rotation of a fluorescent probe.
The target of another test is Prothrombin (Bos taurus, UniProt P00735). The test is described as follows: thrombin inhibition, dose response, biochemical, fluorescence polarization, uHTS hits (AID 602369). The test is classed as functional.
Another test concerns the target Major prion protein (Homo sapiens, UniProt P04156). Format: functional, cell-based.
A short description of test [3]: nonselective inhibitors of cellular cAMP signaling, dose response, counter-screen for MC4R biased antagonist project, cell-based, TR-FRET cAMP detection (AID 602305).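 Further: U2OS cells stimulated with forskolin near its EC80 as the cAMP inducer; potency is for inhibition of forskolin-stimulated cAMP signaling.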 The test is classed as functional. A general note: The purpose of a counterscreen is to sort out artefacts and off-target activity.
For a further test, the target named is Melanocortin receptor 4 (Homo sapiens, UniProt P32245). Description: MC4R antagonist potency on cAMP, dose response, cell-based, TR-FRET, biased antagonists (AID 602298).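 Further: antagonist potency against agonist-stimulated cAMP production.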 The test is classed as functional.
The target in test [4] is Cell division cycle 7-related protein kinase (Homo sapiens, UniProt O00311). The test is classed as functional.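 Further: value obtained from a kinome-wide kinase panel.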
Test [5] deals with MAP kinase-interacting serine/threonine-protein kinase 2 (Homo sapiens, UniProt Q9HBH9). Format: functional.
The target of test [6] is cAMP-dependent protein kinase catalytic subunit alpha (Homo sapiens, UniProt P17612). Format: functional.
Test [7] addresses Dual specificity protein kinase CLK4 (Homo sapiens, UniProt Q9HAZ1). Format: functional.
The target of test [8] is Homeodomain-interacting protein kinase 2 (Homo sapiens, UniProt Q9H2X6). The test is classed as functional.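 Further: measured within a kinome-wide kinase profiling panel, HIPK2 being one panel member.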
Test [9] has as its target Interleukin-1 receptor-associated kinase 4 (Homo sapiens, UniProt Q9NWZ3). The test is classed as functional.
Test [10] deals with Mitogen-activated protein kinase kinase kinase kinase 4 (Homo sapiens, UniProt O95819). The test is classed as functional.
In test [11] the target is Serine/threonine-protein kinase pim-1 (Homo sapiens, UniProt P11309). The test is classed as functional.
Test [12] deals with Glycogen synthase kinase-3 beta (Homo sapiens, UniProt P49841). Format: functional.
Test [13] deals with Cyclin-dependent kinase 2 (Homo sapiens, UniProt P24941). The test is classed as functional.
Test [14] concerns the target Vascular endothelial growth factor receptor 2 (Homo sapiens, UniProt P35968). Format: functional.
In the next test the target is Aurora kinase A (Homo sapiens, UniProt O14965). Format: functional.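 Further: value from the Navigating the Kinome kinase panel profiling, panel entry STK6.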
The target of the next test is Aurora kinase B (Homo sapiens, UniProt Q96GD4). Format: functional.
Test [15] deals with Neuropeptides B/W receptor type 1 (Homo sapiens, UniProt P48145). The test is described as follows: GPR7 antagonist potency, late-stage follow-up, cell-based, fluorescence, dose response, set 5 (AID 588566). Format: functional.
Test [16] addresses Melanin-concentrating hormone receptor 1 (Homo sapiens, UniProt Q99705). The test is described as follows: Late-stage fluorescence-based counterscreen for antagonists of the G-protein coupled receptor 7 (GPR7): cell-based dose response assay to identify antagonists of the melanin-concentrating hormone receptor 1 (MCHR1) Set 5. Format: functional.

The source made the active and inactive calls. Some results are limits rather than exact numbers.

In general, IC50 refers to the concentration that inhibits the measured activity by half. Broadly, the Ki is a measure of affinity in units of concentration, obtained from inhibition or displacement.

Turning to `Nc1nnc(SCc2nc(O)c3c(-c4ccccc4)csc3n2)s1`, the IC50 in the test “cells” was > 138 µM (inactive); in [1], > 100 µM (inactive); in test [2] it was 28.9 µM (active); at Prothrombin it was 30.8 µM (active); at Major prion protein it was 12.2 µM (inactive).
As to `COc1cc(C(=S)N2CCOCC2)ccc1OC(=O)c1ccc([N+](=O)[O-])cc1[N+](=O)[O-]`, the IC50 (in [3]; on Melanocortin receptor 4) was > 64.6 µM (inactive) in each case.
As to `NC1CCCCC1Nc1nccc(Nc2ccccc2C(=O)O)n1` (configuration not stated), the inhibitory constant (Ki) in [4] is 0.0316 µM (active); in test [5], > 10 µM (inactive); in test [6] it was > 7.94 µM (inactive); in test [7], > 10 µM (inactive); in [8] it was > 3.16 µM (inactive); in test [9], > 10 µM (inactive). For the same compound, the Ki is > 10 µM (inactive) in test [10], 2 µM (active) in test [11], 6.31 µM (active) in [12] and > 7.94 µM (inactive) in [13].
`O=S(=O)(Nc1ccc2c(c1)C(=NO)c1ccccc1-2)c1cccc(F)c1`: the inhibition constant Ki in [14] is 3.98 µM (active); at Aurora kinase A, 0.501 µM (active); at Aurora kinase B, 0.00631 µM (active).
Take `O=c1c(Oc2ccc3c(c2)OCO3)c(Cl)cnn1Cc1cccc2ccccc12`: the concentration for half-maximal inhibition (IC50) in test [15] is 0.368 µM (active); in test [16] it was 11.2 µM (inactive).

The values above are taken from ChEMBL document CHEMBL1201862, “PubChem BioAssay data set” (2004).
